# Legend:
# [1] = biological target: T1, Ubiquitin-like modifier-activating enzyme ATG7 (Homo sapiens, UniProt O95352); assay: Inhibition of recombinant His-tagged human ATG7 incubated for 105 mins in presence of GST-tagged ATG3 and Flag-tagged Gabarap and measured after 2 hrs by FRET assay relative to control
# T1 sequence (O95352 whole entry): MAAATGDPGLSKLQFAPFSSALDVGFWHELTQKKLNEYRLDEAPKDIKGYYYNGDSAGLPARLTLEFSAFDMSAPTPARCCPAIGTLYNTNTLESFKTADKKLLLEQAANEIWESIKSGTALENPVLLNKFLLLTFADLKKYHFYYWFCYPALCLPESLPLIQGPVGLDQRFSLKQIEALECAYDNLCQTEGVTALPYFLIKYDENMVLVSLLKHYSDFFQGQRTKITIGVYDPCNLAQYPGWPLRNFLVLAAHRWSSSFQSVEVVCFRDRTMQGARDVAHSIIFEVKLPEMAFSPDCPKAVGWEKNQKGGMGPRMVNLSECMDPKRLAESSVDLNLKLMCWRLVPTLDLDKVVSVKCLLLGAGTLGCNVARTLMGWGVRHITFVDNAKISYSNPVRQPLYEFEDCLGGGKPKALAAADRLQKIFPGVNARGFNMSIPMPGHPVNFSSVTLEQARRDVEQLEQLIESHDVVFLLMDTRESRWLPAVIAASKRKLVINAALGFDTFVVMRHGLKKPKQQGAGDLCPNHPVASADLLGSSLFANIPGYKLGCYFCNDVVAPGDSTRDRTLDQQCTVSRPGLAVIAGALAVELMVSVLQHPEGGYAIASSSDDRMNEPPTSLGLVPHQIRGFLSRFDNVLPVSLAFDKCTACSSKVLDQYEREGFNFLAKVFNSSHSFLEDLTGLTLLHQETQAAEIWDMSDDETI
# [2] = tested on: NCI-H1650; assay: Antiproliferative activity against human H1650 cells assessed as reduction in cell viability after 72 hrs by cell titer glow assay; format: cell-based; details: NCI-H1650, 72 h
# [3] = […] of autophagy in human H4 cells assessed as decrease in LC3B spot area by immunofluorescence assay; format: functional, cell-based
# [4] = biological target: T1, Ubiquitin-like modifier-activating enzyme ATG7; assay: Inhibition of ATG7 in human 293HEK cells assessed as inhibition of ATG7:ATG8 thioester formation after 8 hrs by Western blot analysis; format: cell-based, HEK293
# [5] = biological target: T1, Ubiquitin-like modifier-activating enzyme ATG7; assay: Inhibition of ATG7 in human 293HEK cells assessed as inhibition of ATG7:ATG8 thioester formation after 4 hrs by Western blot analysis; format: cell-based, HEK293
SMILES,IC50 [1],EC50 [2],IC50 [3],IC50 [4],IC50 [5]
Nc1ncnc2c1c(Sc1cccc(Cl)c1)nn2[C@H]1C[C@H](O)[C@H](COS(N)(=O)=O)O1,190 nM,> 50000 nM,1370 nM,–,–
CCSc1nn([C@@H]2O[C@H](COS(N)(=O)=O)[C@@H](O)[C@H]2O)c2ncnc(N)c12,22 nM,15400 nM,–,160 nM,–
CSc1nn([C@H]2C[C@H](O)[C@H](COS(N)(=O)=O)O2)c2ncnc(N)c12,124 nM,> 50000 nM,1260 nM,–,–
CC(C)Sc1nn([C@@H]2O[C@H](COS(N)(=O)=O)[C@@H](O)[C@@H]2F)c2ncnc(N)c12,20 nM,22400 nM,727 nM,56 nM,199 nM
Nc1ncnc2c1c(SCc1ccccc1)nn2[C@@H]1O[C@H](COS(N)(=O)=O)[C@@H](O)[C@H]1O,23 nM,> 50000 nM,–,322 nM,604 nM
Nc1ncnc2c1cnn2[C@@H]1O[C@H](COS(N)(=O)=O)[C@@H](O)[C@H]1O,457 nM,75 nM,–,–,–
Nc1ncnc2c1c(Sc1cn[nH]c1)nn2[C@@H]1O[C@H](COS(N)(=O)=O)[C@@H](O)[C@H]1O,16 nM,> 50000 nM,–,–,1280 nM
Nc1ncnc2c1c(OC(F)F)nn2[C@H]1C[C@H](O)[C@@H](COS(N)(=O)=O)O1,100 nM,> 50000 nM,1770 nM,545 nM,–
Cc1cccc(Sc2nn([C@@H]3O[C@H](COS(N)(=O)=O)[C@@H](O)[C@H]3O)c3ncnc(N)c23)c1,18 nM,> 50000 nM,–,178 nM,–
COc1nn([C@@H]2O[C@H](COS(N)(=O)=O)[C@@H](O)[C@@H]2F)c2ncnc(N)c12,177 nM,33900 nM,–,317 nM,–
CSc1nn([C@@H]2O[C@H](COS(N)(=O)=O)[C@@H](O)[C@@H]2F)c2ncnc(N)c12,41 nM,5790 nM,977 nM,47 nM,–
CC(C)Sc1nn([C@@H]2O[C@@H](COS(N)(=O)=O)[C@@H](O)[C@H]2O)c2ncnc(N)c12,129 nM,> 50000 nM,20100 nM,882 nM,882 nM
Cc1cccc(Sc2nn([C@@H]3O[C@H](COS(N)(=O)=O)[C@@H](O)[C@@H]3F)c3ncnc(N)c23)c1,–,49100 nM,483 nM,51 nM,140 nM
Nc1ncnc2c1c(Sc1cccc(Cl)c1)nn2[C@@H]1O[C@H](COS(N)(=O)=O)[C@@H](O)[C@@H]1F,31 nM,39700 nM,534 nM,56 nM,198 nM
Nc1ncnc2c1c(Sc1ccc3c(c1)CCC3)nn2[C@H]1C[C@H](O)[C@H](COS(N)(=O)=O)O1,156 nM,> 50000 nM,996 nM,–,–
Nc1ncnc2c1c(Sc1ccccc1)nn2[C@@H]1O[C@H](COS(N)(=O)=O)[C@@H](O)[C@H]1O,29 nM,> 50000 nM,–,201 nM,–
Nc1ncnc2c1c(O)nn2[C@@H]1O[C@H](COS(N)(=O)=O)[C@@H](O)[C@H]1O,84 nM,> 50000 nM,–,–,–
Nc1ncnc2c1c(CCc1ccccc1)nn2[C@@H]1O[C@H](COS(N)(=O)=O)[C@@H](O)[C@H]1O,351 nM,> 50000 nM,–,–,–
Nc1ncnc2c1c(OC(F)F)nn2[C@@H]1O[C@H](COS(N)(=O)=O)[C@@H](O)[C@@H]1F,43 nM,18300 nM,–,–,453 nM

# Source: ChEMBL document CHEMBL4725396, “Discovery and optimization of pyrazolopyrimidine sulfamates as ATG7 inhibitors” (Bioorg Med Chem, 2020)
